The target in the experiment is T1, His6-PDK1 (aa 52-556) (Homo sapiens, UniProt O15530).
T1 construct: 15 μL His6-PDK1 (aa 52-556) 3.33 ng/well) and PDKtide; host or cells: baculovirus-infected insect cells
T1 sequence (O15530 52-556): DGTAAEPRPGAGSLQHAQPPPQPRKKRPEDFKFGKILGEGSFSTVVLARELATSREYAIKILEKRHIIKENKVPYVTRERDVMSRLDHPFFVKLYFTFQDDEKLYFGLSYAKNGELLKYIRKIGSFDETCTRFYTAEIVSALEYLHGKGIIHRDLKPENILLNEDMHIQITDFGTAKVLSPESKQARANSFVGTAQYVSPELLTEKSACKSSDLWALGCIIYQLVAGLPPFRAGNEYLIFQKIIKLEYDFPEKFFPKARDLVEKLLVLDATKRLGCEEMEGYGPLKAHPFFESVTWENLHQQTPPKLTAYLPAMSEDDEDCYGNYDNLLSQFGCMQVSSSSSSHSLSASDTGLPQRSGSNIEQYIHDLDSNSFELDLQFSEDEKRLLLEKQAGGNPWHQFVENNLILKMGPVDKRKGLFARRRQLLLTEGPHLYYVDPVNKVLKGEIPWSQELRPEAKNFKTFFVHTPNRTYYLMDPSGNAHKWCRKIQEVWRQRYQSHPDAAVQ
The experiment can be described thus: PDK1 kinase assay III (with Tween 20). In kind it is biochemical. The note with it: 10 μM compound, residual enzyme activity relative to DMSO control, unmarked values, read-out: % CTL. The procedure:
Another PDK1 assay was developed which by comparison with PDK1 assay 1 additionally contains Tween 20:
The following components are combined in a well of a 96-well round-based dish (Messrs. Greiner bio-one, No. 650101): • 15 μL of compound to be tested in varying concentrations (e.g. Starting at 10 μM, and diluted in steps of 1:5) in APT buffer (50 mM tris/C1 pH7.5; 0.05% β-mercaptoethanol; 10 mM Mg-acetate; 0.0166% Tween 20; 3.33% DMSO) • 15 μL His6-PDK1 (aa 52-556) 3.33 ng/well) and PDKtide (KTFCGTPEYLAPEVRRE […]), synthesised by Pepceuticals Limited, Nottingham, United Kingdom; 25 μM final concentration); His6-PDK1 and PDKtide are together diluted accordingly in assay buffer (50 mM tris pH 7.5, 0.05% β-mercaptoethanol, 10 mM Mg-acetate); PDKtide is present in this mixture as an 83.3 μM solution. These 30 μL are routinely incubated for 30 min at RT. • 20 μL ATP solution (25 μM ATP with 1.0 μCi/well gamma-P33-ATP). The final concentration of Tween 20 is 0.005%.
The reaction is started by adding the ATP solution and the mixture is incubated for 90 min at ambient temperature; at the start of the reaction the dishes are shaken gently. The reaction is stopped by the addition of 50 μL/well of 500 mM phosphoric acid (H3PO4) and incubated for about 20 min at ambient temperature. The precipitate is transferred by harvesting onto filter plates (96-well microtitre filter plate: UniFilter GF/C; Messrs Perkin Elmer; No. 6005174), then washed 6 times with 50 mM H3PO4 and dried at 60° C. Then the plate is stuck down with sealing tape, 25 μL/well of scintillation solution (Microscint 0; Messrs. Perkin Elmer; No. 6013611) are added and the amount of P33 precipitated is measured using the Wallac Betacounter. The measured data are evaluated using Graphpad Prism software.
The % CTL values indicate the residual activity of the enzyme after the addition of the inhibitory compound in the solvent DMSO in relation to the enzyme activity in the solvent DMSO without the addition of a compound (control). The majority of the values were determined using the PDK1 kinase assay III described hereinbefore. The values marked with an asterisk (*) were determined using the PDK1 kinase assay II described hereinbefore.
As to `CN(C)Cc1ccc(Nc2ncc3cc(C#CCNC(=O)c4cccn(Cc5ccc(C(F)(F)F)nc5)c4=O)ccc3n2)cc1` [II-6, N-{3-[2-({4-[(dimethylamino)methyl]phenyl}amino)quinazolin-6-yl]prop-2-yn-1-yl}-2-oxo-1-{[6-(trifluoromethyl)pyridin-3-yl]methyl}-1,2-dihydropyridine-3-carboxamide], the remaining activity at 10 µM came out at 16%.

Consider `O=C1Nc2cc(/C=C/CNC(=O)c3cccn(CC4CCCCC4)c3=O)ccc2/C1=C/c1cnc[nH]1` [I-25, 1-(cyclohexylmethyl)-N-{(2E)-3-[(3Z)-3-(1H-imidazol-5-ylmethylidene)-2-oxo-2,3-dihydro-1H-indol-6-yl]prop-2-en-1-yl}-2-oxo-1,2-dihydropyridine-3-carboxamide], for which the remaining activity at 10 µM was 15.1%.

Take `O=C1Nc2cc(/C=C/CNC(=O)c3cccn(Cc4ccc(Cl)nc4)c3=O)ccc2/C1=C/c1cnc[nH]1` [I-1, 1-[(6-chloropyridin-3-yl)methyl]-N-{(2E)-3-[(3Z)-3-(1H-imidazol-5-ylmethylidene)-2-oxo-2,3-dihydro-1H-indol-6-yl]prop-2-en-1-yl}-2-oxo-1,2-dihydropyridine-3-carboxamide]: the remaining activity at 10 µM is 16.8%.

As for `O=C1Nc2cc(/C=C/CNC(=O)c3cccn(Cc4cccnc4)c3=O)ccc2/C1=C/c1ccc[nH]1` [I-4, 2-oxo-N-{(2E)-3-[(3Z)-2-oxo-3-(1H-pyrrol-2-ylmethylidene)-2,3-dihydro-1H-indol-6-yl]prop-2-en-1-yl}-1-(pyridin-3-ylmethyl)-1,2-dihydropyridine-3-carboxamide], the remaining activity at 10 µM was 18.6%.

In the case of `CN1CCC(Nc2ccc(Nc3ncc4cc(/C=C/CNC(=O)c5cccn(Cc6ccc(C(F)(F)F)nc6)c5=O)ccc4n3)cc2F)CC1` [III-14, N-{(2E)-3-[2-({3-fluoro-4-[(1-methylpiperidin-4-yl)amino]phenyl}amino)quinazolin-6-yl]prop-2-en-1-yl}-2-oxo-1-{[6-(trifluoromethyl)pyridin-3-yl]methyl}-1,2-dihydropyridine-3-carboxamide], the remaining activity at 10 µM was found to be 17.2%.

Take `Cn1cncc1Cn1cccc(C(=O)NC/C=C/c2ccc3c(c2)NC(=O)/C3=C\c2cnc[nH]2)c1=O` [I-26, N-{(2E)-3-[(3Z)-3-(1H-imidazol-5-ylmethylidene)-2-oxo-2,3-dihydro-1H-indol-6-yl]prop-2-en-1-yl}-1-[(1-methyl-1H-imidazol-5-yl)methyl]-2-oxo-1,2-dihydropyridine-3-carboxamide]: the remaining activity at 10 µM amounted to 34.1%.

For `CN(C)Cc1ccc(Nc2ncc3cc(/C=C/CNC(=O)c4cccn(Cc5ccc(C(F)(F)F)nc5)c4=O)ccc3n2)cc1` [III-16, N-{(2E)-3-[2-({4-[(dimethylamino)methyl]phenyl}amino)quinazolin-6-yl]prop-2-en-1-yl}-2-oxo-1-{[6-(trifluoromethyl)pyridin-3-yl]methyl}-1,2-dihydropyridine-3-carboxamide], the remaining activity at 10 µM is 19.2%.

Consider `CN(C)Cc1ccc(Nc2ncc3cc(/C=C/CNC(=O)c4cccn(Cc5ccc(Cl)nc5)c4=O)ccc3n2)cc1` [III-13, 1-[(6-chloropyridin-3-yl)methyl]-N-{(2E)-3-[2-({4-[(dimethylamino)methyl]-phenyl}amino)quinazolin-6-yl]prop-2-en-1-yl}-2-oxo-1,2-dihydropyridine-3-carboxamide], for which the remaining activity at 10 µM came out at 13.6%.

For `O=C1Nc2cc(/C=C/CNC(=O)c3cccn(Cc4ccncc4)c3=O)ccc2/C1=C/c1cnc[nH]1` [I-8, N-{(2E)-3-[(3Z)-3-(1H-imidazol-5-ylmethylidene)-2-oxo-2,3-dihydro-1H-indol-6-yl]prop-2-en-1-yl}-2-oxo-1-(pyridin-4-ylmethyl)-1,2-dihydropyridine-3-carboxamide], the remaining activity at 10 µM came to 25.1%.

`Cc1ccc(Cn2cccc(C(=O)NC/C=C/c3ccc4c(c3)NC(=O)/C4=C\c3cnc[nH]3)c2=O)cn1` [I-24, N-{(2E)-3-[(3Z)-3-(1H-imidazol-5-ylmethylidene)-2-oxo-2,3-dihydro-1H-indol-6-yl]prop-2-en-1-yl}-1-[(6-methylpyridin-3-yl)methyl]-2-oxo-1,2-dihydropyridine-3-carboxamide]: the remaining activity at 10 µM was 20.1%.

For `O=C1Nc2cc(/C=C/CNC(=O)c3cccn(Cc4ccccn4)c3=O)ccc2/C1=C/c1ccc[nH]1` [I-6, 2-oxo-N-{(2E)-3-[(3Z)-2-oxo-3-(1H-pyrrol-2-ylmethylidene)-2,3-dihydro-1H-indol-6-yl]prop-2-en-1-yl}-1-(pyridin-2-ylmethyl)-1,2-dihydropyridine-3-carboxamide], the remaining activity at 10 µM was 20.1%.

Consider `CN(C)Cc1ccc(Nc2ncc3cc(/C=C/CNC(=O)c4cccn(Cc5cccnc5)c4=O)ccc3n2)cc1` [III-12, N-{(2E)-3-[2-({4-[(dimethylamino)methyl]phenyl}amino)quinazolin-6-yl]prop-2-en-1-yl}-2-oxo-1-(pyridin-3-ylmethyl)-1,2-dihydropyridine-3-carboxamide], for which the remaining activity at 10 µM was 18.3%.

As to `O=C1Nc2cc(/C=C/CNC(=O)c3cccn(Cc4ccccn4)c3=O)ccc2/C1=C/c1cnc[nH]1` [I-9, N-{(2E)-3-[(3Z)-3-(1H-imidazol-5-ylmethylidene)-2-oxo-2,3-dihydro-1H-indol-6-yl]prop-2-en-1-yl}-2-oxo-1-(pyridin-2-ylmethyl)-1,2-dihydropyridine-3-carboxamide], the remaining activity at 10 µM turned out to be 17.7%.

On to `O=C1Nc2cc(/C=C/CNC(=O)c3cccn(Cc4ccncc4)c3=O)ccc2/C1=C/c1ccc[nH]1` [I-5, 2-oxo-N-{(2E)-3-[(3Z)-2-oxo-3-(1H-pyrrol-2-ylmethylidene)-2,3-dihydro-1H-indol-6-yl]prop-2-en-1-yl}-1-(pyridin-4-ylmethyl)-1,2-dihydropyridine-3-carboxamide], for which the remaining activity at 10 µM is 39.6%.

For the molecule `O=C1Nc2cc(/C=C/CNC(=O)c3cccn(CC4CCCCC4)c3=O)ccc2/C1=C/c1ccc[nH]1` [I-13, 1-(cyclohexylmethyl)-2-oxo-N-{(2E)-3-[(3Z)-2-oxo-3-(1H-pyrrol-2-ylmethylidene)-2,3-dihydro-1H-indol-6-yl]prop-2-en-1-yl}-1,2-dihydropyridine-3-carboxamide], the remaining activity at 10 µM stood at 25.7%.

With `Cn1cnc(Cn2cccc(C(=O)NC/C=C/c3ccc4c(c3)NC(=O)/C4=C\c3cnc[nH]3)c2=O)c1` [I-27, N-{(2E)-3-[(3Z)-3-(1H-imidazol-5-ylmethylidene)-2-oxo-2,3-dihydro-1H-indol-6-yl]prop-2-en-1-yl}-1-[(1-methyl-1H-imidazol-4-yl)methyl]-2-oxo-1,2-dihydropyridine-3-carboxamide], the remaining activity at 10 µM stood at 47.7%.

In the case of `O=C1Nc2cc(/C=C/CNC(=O)c3cccn(Cc4cccnc4)c3=O)ccc2/C1=C/c1cnc[nH]1` [I-7, N-{(2E)-3-[(3Z)-3-(1H-imidazol-5-ylmethylidene)-2-oxo-2,3-dihydro-1H-indol-6-yl]prop-2-en-1-yl}-2-oxo-1-(pyridin-3-ylmethyl)-1,2-dihydropyridine-3-carboxamide], the remaining activity at 10 µM was 14.5%.

`CN1CCC(Nc2ccc(Nc3ncc4cc(C#CCNC(=O)c5cccn(Cc6ccc(C(F)(F)F)nc6)c5=O)ccc4n3)cc2F)CC1` [II-7, N-{3-[2-({3-fluoro-4-[(1-methylpiperidin-4-yl)amino]phenyl}amino)quinazolin-6-yl]prop-2-yn-1-yl}-2-oxo-1-{[6-(trifluoromethyl)pyridin-3-yl]methyl}-1,2-dihydropyridine-3-carboxamide]: the remaining activity at 10 µM was 18.6%.

Values taken from patent publication US8637549B2, “Pyridons as PDK1 inhibitors” (Boehringer Ingelheim International GmbH, priority 2008, dated 2014).
